Test [1] deals with MHC class I. Nature of the test: MHC binding assay (UV-ligand exchange, ELISA). Also noted: species or system human. The settings on record: yield of UV-ligand exchange reaction. The text has this: Candidate peptides for T cell based therapies according to the present invention were further tested for their MHC binding capacity (affinity). The individual peptide-MHC complexes were produced by UV-ligand exchange, where a UV-sensitive peptide is cleaved upon UV-irradiation, and exchanged with the peptide of interest as analyzed. Only peptide candidates that can effectively bind and stabilize the peptide-receptive MHC molecules prevent dissociation of the MHC complexes. To determine the yield of the exchange reaction, an ELISA was performed based on the detection of the light chain (62m) of stabilized MHC complexes. The assay was performed as generally described in Rodenko et al (Rodenko et al., 2006).
96 well MAXISorp plates (NUNC) were coated over night with 2 ug/ml streptavidin in PBS at room temperature, washed 4× and blocked for 1 h at 37° C. in 2% BSA containing blocking buffer. Refolded HLA-A*02:01/MLA-001 monomers served as standards, covering the range of 15-500 ng/ml. Peptide-MHC monomers of the UV-exchange reaction were diluted 100 fold in blocking buffer. Samples were incubated for 1h at 37° C., washed four times, incubated with 2 ug/ml HRP conjugated anti-62m for 1h at 37° C., washed again and detected with TMB solution that is stopped with […]. Absorption was measured at 450 nm. Candidate peptides that show a high exchange yield (preferably higher than 50%, most preferred higher than 75%) are generally preferred for a generation and production of antibodies or fragments thereof, and/or T cell receptors or fragments thereof, as they show sufficient avidity to the MHC molecules and prevent dissociation of the MHC complexes.

Test [2] has as its system CD4+ T cells. Kind of test: HLA class II T-cell proliferation assay (ProImmune, CFSE). The settings on record: for Number of positive donors: 21 donor samples, positive = over 0.02% stimulation above background; for Number of positive donors / Strength of response: mean in % above the background: 5 μM peptide, 7 days; for Strength of response: mean in % above the background: CD4+ T-cell proliferation (CFSE). It is filed as cell-based, human. The text has this: The experiments as follows summarize the results of T-cell Proliferation Assays of selected MHC class II TUMAPs. Nine of 10 tested peptide antigens tested positive for immunogenicity. […] Individual peptide antigens stimulated the CD4+ T-cell proliferation in up to 6 donors. […] Thus, it can be concluded that the newly tested peptides also have a high potential to induce T-cell responses in vaccine trials.
In order to characterize selected peptides for their potential especially as vaccine candidates, their in vitro immunogenicity was determined by analysis of T-cell proliferation using a commercial T-cell Proliferation Assay from the company ProImmune.
Healthy donor CD8-depleted blood cells samples were tested with the selected peptides. The peptides that induce the proliferation of CD4+ T cells can potentially result in the development of a helper T-cell immune response, and therefore are considered to be immunogenic. The proliferation of CD4+ T cells was determined using carboxyfluorescein succinimidyl ester (CFSE) labelling. In proliferating cells, CFSE is distributed evenly to dividing cells. Thus, the proliferation can be measured as a decrease in CFSE fluorescence in the cells as analyzed.
Peripheral blood mononuclear cell (PBMC) samples from healthy human donors were selected from the ProImmune cell bank based on HLA-DRB1 allele expression. CD8^+ T-cells were depleted from donor blood samples prior to use to avoid a false-positive response. The remaining CD4^+ T cells were labelled with CFSE and subsequently incubated with 5 μM of each selected peptide. Each peptide was tested in six replicated wells. The background was measured on each plate in six unstimulated control wells.
After an incubation period of 7 days the cells were co-stained with anti-CD4 antibody and analyzed by flow cytometry. The degree of proliferation was determined by measuring a reduction in CFSE intensity.
The evaluation of flow cytometric data was performed using FlowJo Software (Tree Star, Inc.). The results of flow cytometric analysis were expressed as the ratio of the CD4^+ dim population to the total CD4^+ population. The degree of proliferation was expressed as percentage of stimulation above background, i.e. proportion of antigen stimulated CD4^+ CFSE dim cells minus the proportion of CD4^+ CFSE dim cells from unstimulated control wells. For each sample, a mean and the corresponding standard error of the mean (SEM) of the six replicates were calculated.
Donors were chosen by HLA-DRB1 allele expression. The other two HLA class II loci (DQ and DP) have not been included into the analysis. The interesting DRB1 alleles were selected according to the frequencies of predicted peptide binding based on […] algorithm (Rammensee et al., 1999). For HLA-DR, binding was defined by a […] binding prediction score equal or greater than 18. This threshold score for binding was defined based on the analysis of binding scores of known published promiscuous HLA-DR ligands (Table 24).
All DRB1 alleles with binding frequency over 20% over all selected peptides were requested to be included into the donor panel) by ProImmune. 4 other rare DRB1 alleles (DRB1*10:01, DRB1*16:01, DRB1*08:01, and DRB1*13:03) were requested additionally.
The antigen-stimulated proliferation of CD4^+ T cells was considered as an indicator of in vitro immunogenicity and was investigated in a commercially available T-cell Proliferation Assay from ProImmune. The degree of antigen-stimulated CD4^+ T-cell proliferation was expressed as a percentage of stimulation above background. A response over 0.02% stimulation above background with SEM=2 (i.e. values two standard errors greater than background) was considered to be positive.

For test [3], the system named is CD4+ T cells. Particulars: 19 evaluable patients, prostate cancer-specific peptide vaccine (Feyerabend 2009; Widenmeyer 2008); cited from earlier work.
In test [4] the test system is CD4 T cells. Kind of test: In vivo immunogenicity in vaccinated patients, intracellular cytokine staining (ICS) of CD4 T cells. Also noted: species or system human. The settings on record: IMA950 peptides, 16 patients, study IMA950-101. Here is the method:
The T-cell proliferation analysis included 5 peptides with known in vivo immunogenicity as positive controls. The in vivo immunogenicity of these peptides was determined in blood samples of patients vaccinated with these peptides in clinical trials using intracellular cytokine staining (ICS) of CD4 T cells.
In principle, ICS assays analyze the quality of specific T cells in terms of effector functions. Therefore the peripheral mononuclear cells (PBMCs) were re-stimulated in vitro with the peptide of interest, a reference peptide and a negative control (here MOCK). Following the re-stimulated cells were stained for IFN-gamma, TNF-alpha, IL-2 and IL-10 production, as well as expression of the co-stimulatory molecule CD154. The counting of stained cells was performed on a flow cytometer (FIG. 5).

For “60 (SYPAKLSFI; listed as Homo sapiens) [compound 60]”, the “Peptide exchange (MHC class I binding score)” value in test [1] is given as “+++ (50%-75% = +++)”.
Turning to “80 (AYLKEVEQL; listed as Homo sapiens) [compound 80]”, in test [1], the “Peptide exchange (MHC class I binding score)” value is reported as “+++ (50%-75% = +++)”.
In the case of “BIR-002: IMA950 class II peptide, positive control with known in vivo immunogenicity (TLGEFLKLDRERAKN; listed as Homo sapiens) [reference compound]”, in test [2], the “Number of positive donors” value came to 3 and the “Strength of response: mean in % above the background” value is reported as 0.24%. Also, in test [2] (CD4+ CFSE dim cells minus unstimulated control), the “strength of stimulation response on average, above the background” value is on record as 0.24%. Also, the “patients mounting a strong CD4+ T-cell response” value in test [3] is given as 84%. Moreover, the “immune response by vaccination (ICS)” value in test [4] stood at 100%.
For the substance “MET-005: IMA950 class II peptide, positive control with known in vivo immunogenicity (TFSYVDPVITSISPKYG; listed as Homo sapiens) [reference compound]”, in test [2], the “Number of positive donors” value is on record as 4 and the “Strength of response: mean in % above the background” value was 0.31%. Besides, the “immune response by vaccination (ICS)” value in test [4] is 100%.

Values taken from patent US10526389B2, “Peptides and combinations of peptides for use in immunotherapy against lung cancer, including NSCLC and other cancers” (Immatics Biotechnologies GmbH, priority 2015, dated 2020).
